Where “and” joins values, the source holds several entries; their conditions need not be identical. Identical values can stand only once. Each block holds one compound with its values, some of them ahead of it.
Legend:
MCF7 [1] = assay: Antiproliferative activity against human MCF7 cells assessed as inhibition of cell proliferation measured after 96 hrs by SRB assay; format: functional, cell-based; details: MCF7, 96 h
LS180 [2] = assay: Anticancer activity against human LS180 assessed as inhibition in cell viability; format: functional, cell-based
[3] = Antioxidant activity assessed as DPPH radical scavenging activity; format: functional
MCF7 [4] = assay: Anticancer activity against human MCF7 cells assessed as inhibition of cell proliferation measured after 48 hrs by MTT assay; format: functional, cell-based; details: MCF7, 48 h
Mus musculus = assay: Antiinflammatory activity in Swiss albino mouse model of carrageenan-induced paw edema assessed as reduction in paw edema; format: functional; design: scale not given: the % may be the effect or the level left
RAW264.7 = assay: Anti-inflammatory activity against mouse RAW264.7 cells assessed as inhibition of LPS-induced NO production at 50 ug/ml relative to control; format: functional; design: scale not given: the % may be the effect or the level left; details: dose 50 µg/ml
Serratia marcescens = assay: Antibacterial activity against Serratia marcescens assessed as zone of inhibition; format: functional
Aspergillus ochraceus [5] = assay: Antifungal activity against Aspergillus ochraceus assessed as zone of inhibition at 20 ug/ml; format: functional; details: read-out: IZ
Bacillus cereus [6] = assay: Antibacterial activity against Bacillus cereus assessed as zone of inhibition; format: functional
Aspergillus ochraceus [7] = assay: Antifungal activity against Aspergillus ochraceus assessed as zone of inhibition; format: functional
Proteus mirabilis = assay: Antibacterial activity against Proteus mirabilis assessed as zone of inhibition; format: functional
Penicillium chrysogenum = assay: Antifungal activity against Penicillium chrysogenum assessed as zone of inhibition; format: functional
Staphylococcus aureus = assay: Antibacterial activity against Staphylococcus aureus assessed as zone of inhibition; format: functional
[8] = Induction of angiogenesis in human HUVEC cells; format: functional
MES-SA = assay: Cytotoxicity against human MES-SA cells assessed as reduction in cell viability incubated for 72 hrs by MTT assay; format: functional, cell-based
HCT-116 = assay: Cytotoxicity against human HCT-116 cells assessed as reversal of multi drug resistance at 1 uM; format: functional, cell-based
HCT-116/VM46 [9] = assay: cells; details: Homo sapiens
L1210 [10] = assay: Cytotoxicity against mouse L1210 cells assessed as reduction in cell viability; format: functional, cell-based
L1210 [11] = assay: Cytotoxicity against […] cells assessed as reversal of multi drug resistance at 1 uM; format: functional, cell-based; details: Mus musculus
HeLa [12] = assay: Antiproliferative activity against human HeLa cells assessed as reduction in cell proliferation; format: functional, cell-based
[13] = Antiproliferative activity against human U87 cells assessed as reduction in cell viability by MTT assay; format: functional, cell-based, U-87MG ATCC; details: U-87 MG
Bacillus cereus [14] = assay: Antibacterial activity against Bacillus cereus assessed as reduction in microbial growth after 18 hrs by MTT based broth dilution method; format: functional, organism-based
HCT-116/VM46 [15] = assay: Anticancer activity against Multi drug resistant human HCT-116/VM46 cells assessed as inhibition of cell growth; format: functional, cell-based
Plasmodium falciparum [16] = assay: Antimalarial activity against Plasmodium falciparum Dd2 by HRP2 assay; format: functional, organism-based
Plasmodium falciparum [17] = assay: Antimalarial activity against Plasmodium falciparum by LDH assay; format: functional, organism-based
MCF7 [18] = assay: Anticancer activity against human MCF7 cells assessed as reduction in cell viability; format: functional, cell-based
K562 = assay: cells; details: Homo sapiens
Description: Cytotoxicity against human K562 cells at 50 uM by MTT reduction assay

MCF7 [19] = assay: Cytotoxicity against human MCF7 cells […] by MTT reduction assay; format: functional, cell-based
LS180 [20] = assay: cells; details: Homo sapiens
Description: Cytotoxicity against human LS180 cells at 50 uM by MTT reduction assay

HeLa [21] = assay: cells; details: Homo sapiens
Description: Cytotoxicity against human HeLa cells at 50 uM by MTT reduction assay

A549 = assay: Anticancer activity against human A549 cells assessed as reduction in cell viability; format: functional, cell-based

- IC50 (MCF7 [1]): 100 µM
SMILES: O=C1CCCC(=O)C1
- IC50 (LS180 [2]): > 100 µM

- IC50 [3]: 4 µM
- IC50 (MCF7 [4]): 41 µM
SMILES: O=c1oc2ccccc2c2[se]c(CN3CCOCC3)c(Nc3cccnc3)c12

SMILES: CCOc1nc(-c2ccco2)cc2c1c(=O)oc1ccccc12
- Activity (Mus musculus): 89%
- Activity (RAW264.7): 62%

SMILES: O=C1CN=C2C3=C(N=CN2N1)Oc1c(c(=O)oc2ccccc12)C3
- inhibition zone (IZ) (Serratia marcescens): 21 mm
- zone of inhibition at 20 µg/mL (Aspergillus ochraceus [5]): 22 mm
- inhibition zone (IZ) (Bacillus cereus [6]): 22 mm
- inhibition zone (IZ) (Aspergillus ochraceus [7]): 20 mm
- inhibition zone (IZ) (Proteus mirabilis): 22 mm
- inhibition zone (IZ) (Penicillium chrysogenum): 19 mm and 22 mm
- inhibition zone (IZ) (Staphylococcus aureus): 20 mm

SMILES: CN1CCN(Cc2[se]c3c(c2Br)c(=O)oc2ccccc23)CC1
- IC50 [3]: 62 µM
- Activity [8]: 84%
- IC50 (MES-SA): 9.4 µM

- IC50 (HCT-116/VM46 [9]): 60 µM
SMILES: O=c1oc2cc(O)c(O)cc2c2c(-c3ccc(O)c(O)c3)cn(CCc3ccc(O)c(O)c3)c12
- IC50 (HCT-116): 12 µM
- IC50 (L1210 [10]): 10 µM
- IC50 (L1210 [11]): 10 µM

- IC50 (HeLa [12]): 8.84 µM
SMILES: O=C(NO)c1cc2c(=O)oc3ccccc3c2s1

SMILES: N#CC1=C(N)Oc2c(c(=O)oc3ccccc23)C12C(=O)N(CCCCCCCCCCBr)c1ccccc12 (centres undefined)
- IC50 [13]: 39 µM
- IC50 (Bacillus cereus [14]): 39 µM

- IC50 (HCT-116/VM46 [9]): 40 µM
- IC50 (HCT-116/VM46 [15]): 40 µM
SMILES: COc1ccc(CCn2cc(-c3ccc(OC)c(OC)c3)c3c4cc(OC)c(OC)cc4oc(=O)c32)cc1OC
- IC50 (L1210 [11]): 50 µM

- IC50 (Plasmodium falciparum [16]): 1.1 µM
- IC50 (Plasmodium falciparum [17]): 1.1 µM
SMILES: CCN(CC)CCCC(C)Nc1cc2c(c(C)n1)c(=O)oc1ccccc12 (centres undefined)

- IC50 (MCF7 [18]): 49 µM
SMILES: Cc1c(-c2nnn[nH]2)c(=O)oc2c1c(=O)oc1ccccc12

- IC50 (K562): 25.4 µM
- IC50 (LS180 [20]): > 100 µM
- IC50 (HeLa [21]): 29.8 µM
- IC50 (A549): 0.14 µM
SMILES: O=C1CCCc2nc3c(c(-c4ccccc4[N+](=O)[O-])c21)c(=O)oc1ccccc13
- IC50 (MCF7 [19]): 58.6 µM

— ChEMBL document CHEMBL5230136, “A review: Biologically active 3,4-heterocycle-fused coumarins” (Eur J Med Chem, 2021)
